Results from patent US11918582B2 (RAPT Therapeutics, Inc., priority 2021, dated 2024).
Where a name gives a salt, the structure may show the parent alone.

Target: T1, human HPK1 (MAP4K1) (Homo sapiens, UniProt Q92918)
T1 construct: Recombinant human HPK1 kinase domain was obtained from ThermoFisher (Cat. #PV6357) and SignalChem (Cat. #M23-11G); purchased ThermoFisher; SignalChem PV6357; M23-11G
T1 sequence (Q92918 17-274 limits assumed): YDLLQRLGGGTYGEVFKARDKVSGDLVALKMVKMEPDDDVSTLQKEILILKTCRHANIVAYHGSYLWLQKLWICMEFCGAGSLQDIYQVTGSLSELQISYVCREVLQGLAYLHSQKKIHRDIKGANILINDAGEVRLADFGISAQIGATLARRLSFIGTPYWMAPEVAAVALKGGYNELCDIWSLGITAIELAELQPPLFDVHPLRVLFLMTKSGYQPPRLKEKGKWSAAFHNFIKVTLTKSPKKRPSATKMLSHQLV
Assay: Biochemical assay for activity against HPK1 (ADP-Glo, MBP substrate)
Conditions: recombinant human HPK1 kinase domain, 1 nM enzyme, ADP-Glo luminescence
Excerpt: These compounds are made by the synthetic methods described earlier herein. Example 227 Biochemical Assay for Testing Compounds for Activity against HPK1
The enzymatic activity of human HPK1 (MAP4K1) was monitored in a biochemical assay in the presence or absence of compounds, using a peptide substrate (myelin basic protein, MBP), with an ADP-Glo assay kit (Promega, Cat. #V9103). An increase in phosphorylation of the peptide by HPK1 was indicative of its kinase activity.
Recombinant human HPK1 kinase domain was obtained from ThermoFisher (Cat. #PV6357) and SignalChem (Cat. #M23-11G). A 1 nM HPK1 kinase enzyme solution was prepared from the HPK1 stock received from the commercial supplier using an assay buffer containing 50 mM HEPES (4-(2-hydroxyethyl)-1-piperazineethanesulfonic acid) pH 7.5 (Fisher Scientific, Cat. #H1035), 150 mM NaCl (Fisher Scientific, Cat. #50843067), 3 mM TCEP-HCl (Tris(2-carboxyethyl)phosphine hydrochloride; Fisher Scientific, Cat. #PIPG82080), 10 mM MgCl2 (Fisher Scientific, Cat. #AM9530G), 0.005% Tween-20 (Fisher Scientific, Cat. #BP337500) and 0.01% BSA (bovine serum albumin; ThermoFisher, Cat. #15260037), in ultra-pure water. The final concentration of the assay buffer was 770 nM. A 5 mM stock solution of the peptide substrate was prepared using […] MBP (Myelin Basic Protein, Active Motif, Cat. #31314), 10 mM ATP (adenosine 5′-triphosphate; Sigma-Aldrich, Cat. #GE27-2056-01) and of assay buffer.
Test compounds were dissolved in DMSO (dimethyl sulfoxide) at 10 mM and then serial dilutions were prepared using a ViaFlow assist multichannel dispenser (Integra ViaFlo). 20 nL of test compounds at various concentrations were dispensed into a 1536-well assay plate (Corning Cat. #7247) using an Echo Nanoliter dispenser (Labcyte ECHO 550). […] of a 1 nM solution of HPK1 kinase enzyme diluted in assay buffer was added to the compound-containing plate using a Mantis Microliter dispenser (Formulatrix Mantis), covered with a lid, and incubated for 15 minutes at room temperature. 50 nL of a 5 mM stock solution of the peptide substrate (MBP) were added using the Echo Nanoliter dispenser. The plate was covered with a lid, centrifugated at 500 rpm for 1 minute and incubated for 2 hours at room temperature. […] of ADP-Glo reagent A was added using the Mantis Microliter dispenser, centrifugated at 500 rpm for 30 seconds and incubated for 40 minutes at room temperature. […] of ADP-Glo reagent B was added using the Mantis Microliter dispenser, centrifugated at 500 rpm for 30 seconds and incubated for 30 minutes at room temperature. Peptide phosphorylation was measured by luminescence on an Envision plate reader (PerkinElmer).
The HPK1 biochemical IC50 activity levels of the compounds of Examples 1-225 were tested using this assay and are shown in Table 2.

COc1cc2c(cc1Nc1ncc3cnn(C4CCC(C)(CO)CC4)c3n1)CN(C)CC2 (mixture of isomers) [Example 75, [4-[6-[(6-methoxy-2-methyl-3,4-dihydro-1H-isoquinolin-7-yl)amino]pyrazolo[3,4-d]pyrimidin-1-yl]-1-methyl-cyclohexyl]methanol]
IC50: > 251 nM

COc1cc2c(cc1Nc1ncc3cnn([C@H]4CCC[C@H](C(=O)O)C4)c3n1)CN(C)CC2 (racemic) [Example 28, rac-(1S,3S)-3-(6-((6-methoxy-2-methyl-1,2,3,4-tetrahydroisoquinolin-7-yl)amino)-1H-pyrazolo[3,4-d]pyrimidin-1-yl)cyclohexane-1-carboxylic acid]
IC50: < 100 nM

COc1cc2c(cc1Nc1ncc3cnn([C@H]4CCC[C@H](C(N)=O)C4)c3n1)CN(C)CC2 (racemic) [Example 29, rac-(1S,3S)-3-(6-((6-methoxy-2-methyl-1,2,3,4-tetrahydroisoquinolin-7-yl)amino)-1H-pyrazolo[3,4-d]pyrimidin-1-yl)cyclohexane-1-carboxamide]
IC50: < 100 nM

COc1cc2c(cc1Nc1ncc3cnn([C@H]4CCCC[C@@H]4C)c3n1)CN(C)CC2 (racemic) [Example 30, rac-6-methoxy-2-methyl-N-(1-((1S,2S)-2-methylcyclohexyl)-1H-pyrazolo[3,4-d]pyrimidin-6-yl)-1,2,3,4-tetrahydroisoquinolin-7-amine]
IC50: 100 to 250 nM

COc1cc2c(cc1Nc1ncc3cnn([C@H]4CC[C@H](C(=O)O)C4)c3n1)CN(C)CC2 (racemic) [Example 41, rac-(1S,3S)-3-(6-((6-methoxy-2-methyl-1,2,3,4-tetrahydroisoquinolin-7-yl)amino)-1H-pyrazolo[3,4-d]pyrimidin-1-yl)cyclopentane-1-carboxylic acid]
IC50: 100 to 250 nM

COc1cc2c(cc1Nc1ncc3cnn([C@H]4CC[C@H](C(N)=O)C4)c3n1)CN(C)CC2 (racemic) [Example 42, rac-(1S,3S)-3-(6-((6-methoxy-2-methyl-1,2,3,4-tetrahydroisoquinolin-7-yl)amino)-1H-pyrazolo[3,4-d]pyrimidin-1-yl)cyclopentane-1-carboxamide]
IC50: < 100 nM

CNC(=O)[C@H]1CC[C@H](n2ncc3cnc(Nc4cc5c(cc4OC)CCN(C)C5)nc32)C1 (racemic) [Example 43, rac-(1S,3S)-3-(6-((6-methoxy-2-methyl-1,2,3,4-tetrahydroisoquinolin-7-yl)amino)-1H-pyrazolo[3,4-d]pyrimidin-1-yl)-N-methylcyclopentane-1-carboxamide]
IC50: < 100 nM

COc1cc2c(cc1Nc1ncc3cnn([C@H]4CCC[C@H](O)C4)c3n1)CN(C)CC2 (racemic) [Example 44, rac-(trans)-3-(6-((6-methoxy-2-methyl-1,2,3,4-tetrahydroisoquinolin-7-yl)amino)-1H-pyrazolo[3,4-d]pyrimidin-1-yl)cyclohexan-1-ol]
IC50: < 100 nM

COc1cc2c(cc1Nc1ncc3cnn([C@H]4CC[C@H](CO)C4)c3n1)CN(C)CC2 (racemic) [Example 48, rac-(trans-3-(6-((6-methoxy-2-methyl-1,2,3,4-tetrahydroisoquinolin-7-yl)amino)-1H-pyrazolo[3,4-d]pyrimidin-1-yl)cyclopentyl)methanol]
IC50: < 100 nM

COc1cc2c(cc1Nc1ncc3cnn([C@H]4CCC[C@H](C(=O)N(C)C)C4)c3n1)CN(C)CC2 (racemic) [Example 59, rac-(trans)-3-(6-((6-methoxy-2-methyl-1,2,3,4-tetrahydroisoquinolin-7-yl)amino)-1H-pyrazolo[3,4-d]pyrimidin-1-yl)-N,N-dimethylcyclohexane-1-carboxamide]
IC50: < 100 nM

COc1cc2c(cc1Nc1ncc3cnn(C[C@@H]4CCC[C@H]4C(N)=O)c3n1)CN(C)CC2 (racemic) [Example 159, racemic trans-2-[[6-[(6-methoxy-2-methyl-3,4-dihydro-1H-isoquinolin-7-yl)amino]pyrazolo[3,4-d]pyrimidin-1-yl]methyl]cyclopentanecarboxamide]
IC50: < 100 nM

COc1cc2c(cc1Nc1ncc3cnn(C[C@@H]4CCC[C@H]4CO)c3n1)CN(C)CC2 (racemic) [Example 160, Rac-trans-2-[[6-[(6-methoxy-2-methyl-3,4-dihydro-1H-isoquinolin-7-yl)amino]pyrazolo[3,4-d]pyrimidin-1-yl]methyl]cyclopentyl]methanol]
IC50: < 100 nM

CN1CCc2ccc(Nc3ncc4cnn(C[C@@H]5CCC[C@H]5C(=O)O)c4n3)cc2C1 (racemic) [Example 161, Rac-trans-2-[[6-[(2-methyl-3,4-dihydro-1H-isoquinolin-7-yl)amino]pyrazolo[3,4-d]pyrimidin-1-yl]methyl]cyclopentanecarboxylic Acid]
IC50: < 100 nM

COc1cc2c(cc1Nc1ncc3cnn(C[C@@H]4CCC[C@@H]4C(=O)O)c3n1)CN(C)CC2 (racemic) [Example 162, Rac-cis-2-[[6-[(6-methoxy-2-methyl-3,4-dihydro-1H-isoquinolin-7-yl)amino]pyrazolo[3,4-d]pyrimidin-1-yl]methyl]cyclopentanecarboxylic Acid]
IC50: < 100 nM

COc1cc2c(cc1Nc1ncc3cnn(C[C@@H]4CCCC[C@H]4CO)c3n1)CN(C)CC2 (racemic) [Example 165, [rac-trans-2-[[6-[(6-methoxy-2-methyl-3,4-dihydro-1H-isoquinolin-7-yl)amino]pyrazolo[3,4-d]pyrimidin-1-yl]methyl]cyclohexyl]methanol]
IC50: < 100 nM

COc1cc2c(cc1Nc1ncc3cnn(C[C@@H]4CCCC[C@@H]4CO)c3n1)CN(C)CC2 (racemic) [Example 166, [rac-cis-2-[[6-[(6-methoxy-2-methyl-3,4-dihydro-1H-isoquinolin-7-yl)amino]pyrazolo[3,4-d]pyrimidin-1-yl]methyl]cyclohexyl]methanol]
IC50: < 100 nM

COc1cc2c(cc1Nc1ncc3cnn(C[C@@H]4CCC[C@H]4C(=O)O)c3n1)CN(C)CC2 (racemic) [Example 182, racemic trans-2-((6-((6-methoxy-2-methyl-1,2,3,4-tetrahydroisoquinolin-7-yl)amino)-1H-pyrazolo[3,4-d]pyrimidin-1-yl)methyl)cyclopentane-1-carboxylic Acid]
IC50: < 100 nM

COc1cc2c(cc1Nc1ncc3cnn(C[C@@H]4C[C@@H]4C(=O)O)c3n1)CN(C)CC2 (racemic) [Example 188, (cis)-2-((6-((6-methoxy-2-methyl-1,2,3,4-tetrahydroisoquinolin-7-yl)amino)-1H-pyrazolo[3,4-d]pyrimidin-1-yl)methyl)cyclopropane-1-carboxylic Acid]
IC50: < 100 nM

COc1cc2c(cc1Nc1ncc3cnn(CC4CCCOC4)c3n1)CN(C)CC2 (racemic) [Example 200, (S)-6-methoxy-2-methyl-N-(1-((tetrahydro-2H-pyran-3-yl)methyl)-1H-pyrazolo[3,4-d]pyrimidin-6-yl)-1,2,3,4-tetrahydroisoquinolin-7-amine and (R)-6-methoxy-2-methyl-N-(1-((tetrahydro-2H-pyran-3-yl)methyl)-1H-pyrazolo[3,4-d]pyrimidin-6-yl)-1,2,3,4-tetrahydroisoquinolin-7-amine racemic mixture]
IC50: < 100 nM

COc1cc2c(cc1Nc1ncc3cnn(CC4CCCCO4)c3n1)CN(C)CC2 (racemic) [Example 201, (S)-6-methoxy-2-methyl-N-(1-((tetrahydro-2H-pyran-2-yl)methyl)-1H-pyrazolo[3,4-d]pyrimidin-6-yl)-1,2,3,4-tetrahydroisoquinolin-7-amine and (R)-6-methoxy-2-methyl-N-(1-((tetrahydro-2H-pyran-2-ylmethyl)-1H-pyrazolo[3,4-d]pyrimidin-6-yl)-1,2,3,4-tetrahydroisoquinolin-7-amine Hydrochloride, Racemic Mixture]
IC50: < 100 nM
